Consider four molecules from US20260174778A1, “SULFONAMIDE COMPOUND, AND PREPARATION METHOD THEREFOR AND USE THEREOF” (SHANGHAI HENLIUS BIOTECH, INC., priority 2023, published 2026).

In this data set the test system is human breast cancer ZR-75-1 cell xenograft tumor. Briefly: Anti-tumor effect in ER+KAT6high breast cancer cell xenograft tumor model (Test Example 6). The class given is in vivo, Balb/c nude mice. The conditions noted are these: for T/C / TGI / mean tumor volume: day 34; for efficacy compared to PF-8144: 0.1 mg/kg and 0.3 mg/kg PO QD; for body weight changes compared to the PF-8144 group: all doses (0.1, 0.3 mg/kg). Here is the method:
Test Example 6: Anti-Tumor Effects of Test Compounds in ER^+KAT6^high Breast Cancer Cell-Xenograft Tumor Model
Assay method: ZR-75-1 cells were subcutaneously inoculated into the right back of each mouse to evaluate the efficacy of the compounds in the subcutaneous xenograft tumor model of ZR-75-1 cells.
• 1. Cell culture: ZR-75-1 cells were cultured as a monolayer in vitro under the following culture conditions: an RPMI 1640 medium supplemented with 10% fetal bovine serum and 1% Anti-anti (Antibiotic-Antimycotic), incubated in an incubator at 37° C. with 5% CO2. The cells were digested with trypsin-EDTA twice a week for passaging as per conventional practice. When the cell saturation reached 80%-90% and the quantity met the requirement, the cells were harvested, counted, and inoculated. • 2. Animals: Balb/c nude mice, female, 6-8 weeks old, weighing 18-22 g. A total of 115 mice were required (72 mice were enrolled). They were provided by Vital River or other qualified suppliers. • 3. Tumor inoculation: Two days before tumor inoculation, 17-beta estradiol tablets (0.18 mg) were subcutaneously administered, and 10 million ZR-75-1 tumor cells+matrigel (total […]) were subcutaneously inoculated into the right back of each mouse. When the mean tumor volume reached about 131 mm^3, the mice were grouped for administration. • 4. Experimental administration: The compounds were dissolved in 5% DMSO+5% Tween 80+90% Saline or 10% DMSO+10% Solutol+80% (10% HPP-CD in saline), and administered intragastrically (PO) daily for five weeks. • 5. Experimental indicators: The experimental indicators were to investigate whether the tumor growth was inhibited or delayed or the tumor was cured. Tumor diameters were measured twice weekly using a vernier caliper. The tumor volume was calculated using the following formula: V=0.5a×b^2, where a and b represent the long diameter and short diameter of the tumor, respectively. • 6. The anti-tumor efficacy of the compounds was evaluated by TGI (%) or relative tumor proliferation rate T/C (%). TGI (%) refers to the tumor growth inhibition rate. Calculation of TGI (%):TGI (%)=[(1−(mean tumor volume at the end of administration in a treatment group—mean tumor volume at the start of administration in the treatment group))/(mean tumor volume at the end of treatment in the solvent control group—mean tumor volume at the start of treatment in the solvent control group)]×100%. The calculation formula for the relative tumor proliferation rate T/C (%) was as follows: T/C %=TRTV/CRTV×100% (TRTV:RTV of the treatment group; CRTV:RTV of the negative control group). The relative tumor volume (RTV) was calculated based on the tumor measurement results using the following formula: RTV=Vt/V0, where V0 represents the mean tumor volume measured at the time of grouping for administration (i.e., PG-DO), and Vt represents the mean tumor volume at a certain measurement. TRTV and CRTV were derived from data measured on the same day.
The mean and standard error of mean (SEM) of tumor volume at each time point for each group were included. The differences in tumor volume and tumor weight among the groups were statistically analyzed. For comparisons among three or more groups, one-way ANOVA was used for analysis. […] The analysis was performed using SPSS 17.0, and p<0.05 was considered to indicate a significant difference.
For comparisons between different doses of the same drug or different drugs at the same dose, two-way ANOVA was used for analysis, and the Bonferroni method was applied for testing. The analysis was performed using GraphPad Prism 9.0, and p<0.05 was considered to indicate a significant difference. On day 34 after the start of administration, the data between different doses of the same drug or different drugs at the same dose were analyzed using one-way ANOVA. […] The analysis was performed using SPSS 17.0, and p<0.05 was considered to indicate a significant difference.

By T/C is commonly meant the ratio of treated to control.

As to `COc1ccc2c(c1S(=O)(=O)Nc1noc3cc(Cn4cccn4)c(F)c(OC)c13)OCCC2=O` [Compound 42, N-(6-((1H-Pyrazol-1-yl)methyl)-5-fluoro-4-methoxybenzo[d]isoxazol-3-yl)-7-methoxy-4-oxochromane-8-sulfonamide], the “efficacy compared to PF-8144” value was “significantly superior in efficacy to PF-8144” and the “body weight changes compared to the PF-8144 group” value (“body weight changes” for short) was “no statistically significant difference”. Besides, for the setting “0.1 mg/kg PO QD”, the T/C is recorded as 3.9%, the TGI was 108.67% and the mean tumor volume is reported as 44 mm^3. Moreover, where the note is “0.3 mg/kg PO QD”, the T/C turned out to be 2.2%, the TGI amounted to 110.58% and the mean tumor volume was 25 mm^3.

On to `COc1ccc2c(c1S(=O)(=O)Nc1noc3cc(Cn4cccn4)c(F)c(OC)c13)OCCCO2` [Compound 114, N-(6-((1H-Pyrazol-1-yl)methyl)-5-fluoro-4-methoxybenzo[d]isoxazol-3-yl)-7-methoxy-3,4-dihydro-2H-benzo[b][1,4]dioxepine-6-sulfonamide], for which the “body weight changes” value is on record as “no statistically significant difference”. In addition, for the setting “0.1 mg/kg PO QD”, the T/C is 35.8%, the TGI is 72.61% and the mean tumor volume turned out to be 403 mm^3. Under “0.3 mg/kg PO QD”, the T/C was found to be 10.5%, the TGI was 101.21% and the mean tumor volume is 119 mm^3.

Consider `COc1ccc2c(c1S(=O)(=O)Nc1noc3cc(Cn4cccn4)c(F)c(OC)c13)OCCCN2C` [Compound 115, N-(6-((1H-Pyrazol-1-yl)methyl)-5-fluoro-4-methoxybenzo[d]isoxazol-3-yl)-8-methoxy-5-methyl-2,3,4,5-tetrahydrobenzo[b][1,4]oxazepine-9-sulfonamide], for which the “efficacy compared to PF-8144” value was “significantly superior in efficacy to PF-8144” and the “body weight changes” value was “no statistically significant difference”. Further, under “0.1 mg/kg PO QD”, the T/C came out at 8.6%, the TGI is given as 103.38% and the mean tumor volume worked out at 97 mm^3. Where the note is “0.3 mg/kg PO QD”, the T/C was determined as 2.4%, the TGI came to 110.47% and the mean tumor volume was 27 mm^3.

Take `COc1ccccc1S(=O)(=O)Nc1noc2cc(Cn3cccn3)cc(OC)c12` [PF-8144, reference compound]: under “0.1 mg/kg PO QD”, the T/C stood at 36.2%, the TGI was found to be 72.2% and the mean tumor volume is given as 407 mm^3. Further, under “0.3 mg/kg PO QD”, the T/C stood at 19.5%, the TGI was 91.07% and the mean tumor volume was 220 mm^3.
